Data from US20210347736A1, “CRYSTALLINE FORMS OF A FARNESOID X RECEPTOR AGONIST” (Metacrine, Inc., priority 2018, published 2021).
Entries after “also recorded” stand apart in the source; their conditions may differ.

Experiments:
[1] = molecular target: T1, hFXR (Homo sapiens, UniProt Q96RI1); assay: In Vitro FXR Assay (TK hFXR luciferase reporter in transfected CV-1 cells); assay type: cell-based; conditions: CV-1 cells transfected with hFXR, hRXR, TK-ECRE-luc; 18 hrs incubation; luminescence
T1 construct: expressed in transfected cells; host or cells: CV-1 cells
T1 sequence (Q96RI1 1-486): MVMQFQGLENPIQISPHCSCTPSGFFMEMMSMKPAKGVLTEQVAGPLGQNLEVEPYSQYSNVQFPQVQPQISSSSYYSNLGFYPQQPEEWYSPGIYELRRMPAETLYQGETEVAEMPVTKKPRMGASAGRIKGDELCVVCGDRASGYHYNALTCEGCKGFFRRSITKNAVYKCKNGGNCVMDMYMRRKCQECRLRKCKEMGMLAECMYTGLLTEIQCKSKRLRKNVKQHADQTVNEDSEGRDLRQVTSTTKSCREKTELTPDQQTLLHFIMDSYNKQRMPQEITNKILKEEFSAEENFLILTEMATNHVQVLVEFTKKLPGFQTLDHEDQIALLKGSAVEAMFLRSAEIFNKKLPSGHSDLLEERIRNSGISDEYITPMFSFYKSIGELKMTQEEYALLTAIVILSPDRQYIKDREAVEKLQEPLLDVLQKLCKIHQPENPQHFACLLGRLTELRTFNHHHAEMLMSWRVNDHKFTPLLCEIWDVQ
T1 sequence (P19793 1-462 partner): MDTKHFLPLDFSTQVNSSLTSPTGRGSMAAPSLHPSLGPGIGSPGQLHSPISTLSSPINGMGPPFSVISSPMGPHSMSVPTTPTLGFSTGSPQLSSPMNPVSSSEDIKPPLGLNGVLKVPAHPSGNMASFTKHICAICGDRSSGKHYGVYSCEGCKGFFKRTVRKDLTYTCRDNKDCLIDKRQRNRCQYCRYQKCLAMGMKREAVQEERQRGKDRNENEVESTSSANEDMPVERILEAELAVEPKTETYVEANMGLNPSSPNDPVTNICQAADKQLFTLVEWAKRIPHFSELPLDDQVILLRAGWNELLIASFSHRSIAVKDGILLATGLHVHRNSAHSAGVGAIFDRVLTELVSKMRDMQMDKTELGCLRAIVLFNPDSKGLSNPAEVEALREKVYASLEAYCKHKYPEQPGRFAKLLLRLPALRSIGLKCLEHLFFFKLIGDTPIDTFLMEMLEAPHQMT
Protocol: CV-1 cells were seeded at a density of 2,000,000 cells in a T175 flask with DMEM+10% charcoal double-stripped FBS and incubated at 37° C. in 5% CO2 for 18 h (O/N).
After 18 h of incubation, the medium in the T175 flask was changed with fresh DMEM+10% charcoal super-stripped serum. In a polypropylene tube, 2500 μL OptiMEM (Life Technologies, Cat #31985-062) was combined with expression plasmids for hFXR, hRXR, TK-ECRE-luc and pCMX-YFP. The tube was then briefly vortexed and incubated at room temperature for 5 minutes. Transfection reagent (X-tremeGENE HP from Roche, Cat #06 366 236 001) was added to the OptiMEM/plasmid mixture vortexed and incubated at room temperature for 20 minutes. Following incubation, the transfection reagent/DNA mixture complex was added to cells in the T175 flask and the cells were incubated at 37° C. in 5% CO2 for 18 h (O/N).
Compound 1 was serially diluted in DMSO and added to transfected CV-1 cells. The cells were then incubated for 18 hrs. The next day cells were lysed and examined for luminescence.

[2] = Storage stability of Form 1 for 7 days at elevated humidity (HPLC purity, XRPD); assay type: physicochemical
Protocol: X-Ray Powder Diffraction patterns were collected on a Bruker D8 diffractometer using Cu Kα radiation (40 kV, 40 mA), 0-20 goniometer, and divergence of V4 and receiving slits, a Ge monochromator and a Lynxeye detector. The instrument was performance checked using a certified Corundum standard (NIST 1976). The software used for data collection was Diffrac Plus XRD Commander v2.6.1 and the data were analysed and presented using Diffrac Plus EVA v15.0.0.0.
Samples were run under ambient conditions as flat plate specimens using powder as received. The sample was gently packed into a cavity cut into polished, zero-background (510) silicon wafer. The sample was rotated in its own plane during analysis. The parameters for data collection were: angular range, 2 to 42° 2θ; step size, 0.05° 2θ; collection time, 0.5 s/step.
Purity analysis was performed on an Agilent HP1100 series system equipped with a diode array detector and using ChemStation software vB.04.03 using the method detailed in Table 4 below:
Further, Form 1 of Compound 1 was unchanged by XRPD after 7 days at 25° C. and 97% RH (see FIG. 6, trace (b)).
Further, Form 1 of Compound 1 was unchanged by XRPD after 7 days at 40° C. and 75% RH (see FIG. 6, trace (c)).

[3] = Gravimetric Vapor Sorption (GVS); assay type: physicochemical
Protocol: Sorption isotherms were obtained using a SMS DVS Intrinsic moisture sorption analyser, controlled by DVS Intrinsic Control software v1.0.1.2 (or v1.0.1.3). The sample temperature was maintained at 25° C. by the instrument controls. The humidity was controlled by mixing streams of dry and wet nitrogen, with a total flow rate of 200 ml/min The relative humidity was measured by a calibrated Rotronic probe (dynamic range of 1.0-100% RH), located near the sample. The weight change, (mass relaxation) of the sample as a function of % RH was constantly monitored by the microbalance (accuracy ±0.005 mg).
Typically 5-20 mg of sample was placed in a tared mesh stainless steel basket under ambient conditions. The sample was loaded and unloaded at 40% RH and 25° C. (typical room conditions). A moisture sorption isotherm was performed as outlined below (2 scans giving 1 complete cycle). The standard isotherm was performed at 25° C. at 10% RH intervals over a 0-90% RH range. Data analysis was carried out using Microsoft Excel using DVS Analysis Suite v6.2 (or v6.1 or v6.0).
The sample was recovered after completion of the isotherm and re-analysed by XRPD.

[4] = after 7 days at 25° C. and 97% RH
[5] = after 7 days at 40° C. and 75% RH

Row | Compound | EC50 [1] | HPLC purity after storage [2, 4] | change by XRPD after storage [2, 4] | HPLC purity after storage [2, 5] | change by XRPD after storage [2, 5] | Post-GVS analysis by XRPD ([3]; after GVS) | moisture uptake by GVS ([3]; between 0-90% RH, 25° C.) | hygroscopicity / moisture uptake by GVS (in words) ([3]; summary statement)
1 | COc1ccc([C@H]2CC[C@H](CN(c3cccc(-c4cnn(C5CC5)c4)c3)C(=O)[C@H]3CC[C@H](O)CC3)CC2)cc1C [Compound 1, trans-N-(3-(1-cyclopropyl-1H-pyrazol-4-yl)phenyl)-4-hydroxy-N-((trans-4-(4-methoxy-3-methylphenyl)cyclohexyl)methyl)cyclohexanecarboxamide] | ≤ 0.25 µM |  |  |  |  |  |  | 
2 | COc1ccc([C@H]2CC[C@H](CN(c3cccc(-c4cnn(C5CC5)c4)c3)C(=O)[C@H]3CC[C@H](O)CC3)CC2)cc1C [Form 1 of Compound 1, trans-N-(3-(1-cyclopropyl-1H-pyrazol-4-yl)phenyl)-4-hydroxy-N-((trans-4-(4-methoxy-3-methylphenyl)cyclohexyl)methyl)cyclohexanecarboxamide] |  | 99.40 % AUC | unchanged; also recorded: no changes | 99.48 % AUC | unchanged; also recorded: no changes | no change | 0.02% | non-hygroscopic; also recorded: No significant moisture uptake
